The target in one assay is Procathepsin L (Homo sapiens, UniProt P07711). Kind of assay: CTSL1 protease inhibition – biochemical, QFRET, 1536-well, counter-screen for M1/M17 aminopeptidase inhibitor project, dose response (AID 2214). On the technique in general: Counterscreens check selectivity or assay interference.
The nature of assay [1]: NIH-3T3 fibroblast cytotoxicity, dose response, cytotoxicity control, cell-based, fluorescence, Alamar Blue, secondary assay (AID 2327).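 Note: NIH-3T3 mouse fibroblasts cultured with fluconazole at 8 µg/mL.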 In kind it is functional.
A short description of assay [2]: Luminescence Cell-Based Dose Response HTS to Identify Inhibitors of 5'UTR Stem-Loop Driven Prion Protein mRNA Translation in H4 Neuroglioblastoma Cells. [Related pubchem assays: 1827 (Project Summary), 1813 (Primary HTS)]. The class given is functional.
Another assay deals with T1, Streptokinase A (Streptococcus pyogenes serotype M1, UniProt P10520).
T1 sequence (P10520 whole entry): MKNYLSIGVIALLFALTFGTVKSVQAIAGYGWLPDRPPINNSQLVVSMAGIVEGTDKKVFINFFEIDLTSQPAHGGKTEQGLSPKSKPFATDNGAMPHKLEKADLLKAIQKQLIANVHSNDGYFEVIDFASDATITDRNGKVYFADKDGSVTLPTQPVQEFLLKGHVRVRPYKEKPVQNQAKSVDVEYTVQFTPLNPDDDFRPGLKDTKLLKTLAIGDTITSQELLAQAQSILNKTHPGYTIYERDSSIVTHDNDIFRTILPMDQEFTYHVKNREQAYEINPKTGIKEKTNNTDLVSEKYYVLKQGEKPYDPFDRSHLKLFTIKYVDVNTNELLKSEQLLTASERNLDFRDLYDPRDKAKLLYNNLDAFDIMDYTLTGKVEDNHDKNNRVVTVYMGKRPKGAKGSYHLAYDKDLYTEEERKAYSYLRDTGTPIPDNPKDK
Kind of assay: viability-normalized secreted streptokinase activity reduction – plasminogen activation absorbance, OD405, dose response (AID 1914).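 Note: secreted streptokinase activity via plasminogen activation per viability signal from cell pellet.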 The class given is functional, Streptococcus pyogenes M1 GAS.

For another assay, the system named is Streptococcus. Kind of assay: GAS UMAA2166 growth inhibition – luminescence, BacTiterGlo, counter-screen for streptokinase expression inhibitor project, dose response (AID 1915).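 Note: potency for reduction of bacterial viability or growth.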 In kind it is functional, organism-based.
The test system of another assay is INS1. Kind of assay: INS-1E survival protection against cytokine death – cell-based, luminescence, retest, dose response (AID 449756).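 Note: cell death triggered by IL-1 beta plus TNF-alpha plus IFN-gamma mixture; protective hits raise ATP signal compared with cytokine alone wells.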 The following applies: Rattus norvegicus. The class given is functional.
The nature of assay [3]: Fluorescence-based cell-based high throughput dose response assay for inhibitors of the interaction of nucleotide-binding oligomerization domain containing 2 (NOD2) and the receptor-interacting serine-threonine kinase 2 (RIPK2). In kind it is functional. The conditions noted are these: Homo sapiens.
A short description of assay [4]: activation of miR-122 Renilla sensor silencing – cell-based, Huh7 psiCHECK-miR122, Renilla luciferase, cherry-picked, dose response (AID 651956).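 Note: huh7 hepatoma cells stably carrying a psiCHECK-2 miR-122 sensor plasmid; renilla luciferase signal reporting endogenous miR-122 activity after 48 h compound exposure.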 In kind it is functional.
Assay [5] addresses T2, Histone-lysine N-methyltransferase NSD2 (Homo sapiens, UniProt O96028).
T2 sequence (O96028 whole entry): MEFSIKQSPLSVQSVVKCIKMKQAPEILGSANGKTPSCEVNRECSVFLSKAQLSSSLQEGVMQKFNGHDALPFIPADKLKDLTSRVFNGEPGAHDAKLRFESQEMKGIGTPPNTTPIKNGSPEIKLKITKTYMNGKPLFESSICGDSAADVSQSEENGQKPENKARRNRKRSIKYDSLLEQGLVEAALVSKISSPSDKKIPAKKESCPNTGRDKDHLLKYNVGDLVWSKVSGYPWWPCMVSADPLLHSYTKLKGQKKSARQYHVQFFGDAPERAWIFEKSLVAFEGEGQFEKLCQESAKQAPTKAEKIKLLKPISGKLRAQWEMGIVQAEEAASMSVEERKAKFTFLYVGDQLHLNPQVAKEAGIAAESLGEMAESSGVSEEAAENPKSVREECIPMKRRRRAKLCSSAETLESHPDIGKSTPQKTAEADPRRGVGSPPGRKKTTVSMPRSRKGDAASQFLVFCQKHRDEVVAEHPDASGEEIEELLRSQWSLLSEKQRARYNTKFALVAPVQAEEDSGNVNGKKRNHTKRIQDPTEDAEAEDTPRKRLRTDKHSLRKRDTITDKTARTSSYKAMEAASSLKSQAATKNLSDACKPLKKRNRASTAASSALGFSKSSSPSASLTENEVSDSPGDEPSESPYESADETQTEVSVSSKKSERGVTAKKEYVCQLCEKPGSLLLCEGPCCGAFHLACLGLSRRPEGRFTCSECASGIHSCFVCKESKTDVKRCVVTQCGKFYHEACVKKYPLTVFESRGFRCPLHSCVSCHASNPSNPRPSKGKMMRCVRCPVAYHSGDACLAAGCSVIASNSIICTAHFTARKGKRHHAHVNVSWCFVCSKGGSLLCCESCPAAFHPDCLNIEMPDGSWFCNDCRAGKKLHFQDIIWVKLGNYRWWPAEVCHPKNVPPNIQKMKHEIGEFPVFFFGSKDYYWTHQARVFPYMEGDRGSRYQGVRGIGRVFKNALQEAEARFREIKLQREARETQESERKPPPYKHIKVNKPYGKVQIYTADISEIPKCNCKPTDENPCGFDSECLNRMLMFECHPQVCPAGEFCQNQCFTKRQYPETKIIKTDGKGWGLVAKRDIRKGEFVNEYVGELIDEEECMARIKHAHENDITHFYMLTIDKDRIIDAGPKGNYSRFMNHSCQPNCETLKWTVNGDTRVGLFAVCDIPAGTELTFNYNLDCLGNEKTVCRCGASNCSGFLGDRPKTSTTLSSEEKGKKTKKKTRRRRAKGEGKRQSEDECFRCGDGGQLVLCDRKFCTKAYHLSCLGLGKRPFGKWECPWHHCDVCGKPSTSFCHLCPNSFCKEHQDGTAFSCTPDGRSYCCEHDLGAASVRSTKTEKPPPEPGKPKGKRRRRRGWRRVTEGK
In kind it is biochemical.

A short description of assay [6]: general mammalian cell viability loss – inhibitor set, cherry-pick, set 2, cytotoxicity control for miR-122 modulator project, dose response (AID 720697). In kind it is functional, cell-based.
Assay [7] deals with T3, RNA-binding protein pos-1 (Caenorhabditis elegans, UniProt G5EF15).
T3 sequence (G5EF15 whole entry): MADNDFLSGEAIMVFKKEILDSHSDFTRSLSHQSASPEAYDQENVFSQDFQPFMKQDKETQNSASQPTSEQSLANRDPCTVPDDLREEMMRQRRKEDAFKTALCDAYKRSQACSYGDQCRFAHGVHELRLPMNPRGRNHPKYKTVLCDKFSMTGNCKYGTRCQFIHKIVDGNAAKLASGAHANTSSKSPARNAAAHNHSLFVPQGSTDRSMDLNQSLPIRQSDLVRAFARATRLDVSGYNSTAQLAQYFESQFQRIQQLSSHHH
The assay can be described thus: disruptors of C. elegans POS-1 RNA interaction – biochemical, fluorescence polarization, dose response (AID 1964). (Fluorescence polarisation rises when a labelled molecule tumbles more slowly, as on binding a larger partner.)

A further assay concerns the target SUMO-activating enzyme (Homo sapiens, UniProt Q9UBT2). The assay can be described thus: blockers of SAE1/SAE2–UBC9 SUMO transfer – biochemical, HTRF, uHTS, primary screen (AID 2006). In kind it is protein-complex assay.
The target in assay [8] is Voltage-gated N-type calcium channel alpha-1B subunit/Amyloid beta A4 precursor protein-binding family A member 1 (Homo sapiens, UniProt Q00975+Q02410). The class given is protein assay.

The term IC50 denotes the concentration that inhibits the measured activity by half. Usually EC50 stands for the concentration that produces a half-maximal response. As a reminder, the AC50 is the concentration at which the activity in the assay is half-maximal.

Active and inactive are the calls of the source.

SUMO-activating enzyme, sequence (Q9UBE0 whole entry): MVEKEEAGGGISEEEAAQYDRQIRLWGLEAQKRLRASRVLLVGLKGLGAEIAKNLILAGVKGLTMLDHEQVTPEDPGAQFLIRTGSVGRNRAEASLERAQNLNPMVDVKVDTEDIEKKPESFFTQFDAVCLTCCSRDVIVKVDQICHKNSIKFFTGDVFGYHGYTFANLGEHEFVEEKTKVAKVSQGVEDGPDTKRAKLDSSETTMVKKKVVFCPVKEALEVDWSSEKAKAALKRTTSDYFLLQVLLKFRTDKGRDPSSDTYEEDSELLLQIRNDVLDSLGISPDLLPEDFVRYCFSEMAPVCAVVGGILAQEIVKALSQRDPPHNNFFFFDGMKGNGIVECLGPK
SUMO-activating enzyme, sequence (Q9UBT2 whole entry): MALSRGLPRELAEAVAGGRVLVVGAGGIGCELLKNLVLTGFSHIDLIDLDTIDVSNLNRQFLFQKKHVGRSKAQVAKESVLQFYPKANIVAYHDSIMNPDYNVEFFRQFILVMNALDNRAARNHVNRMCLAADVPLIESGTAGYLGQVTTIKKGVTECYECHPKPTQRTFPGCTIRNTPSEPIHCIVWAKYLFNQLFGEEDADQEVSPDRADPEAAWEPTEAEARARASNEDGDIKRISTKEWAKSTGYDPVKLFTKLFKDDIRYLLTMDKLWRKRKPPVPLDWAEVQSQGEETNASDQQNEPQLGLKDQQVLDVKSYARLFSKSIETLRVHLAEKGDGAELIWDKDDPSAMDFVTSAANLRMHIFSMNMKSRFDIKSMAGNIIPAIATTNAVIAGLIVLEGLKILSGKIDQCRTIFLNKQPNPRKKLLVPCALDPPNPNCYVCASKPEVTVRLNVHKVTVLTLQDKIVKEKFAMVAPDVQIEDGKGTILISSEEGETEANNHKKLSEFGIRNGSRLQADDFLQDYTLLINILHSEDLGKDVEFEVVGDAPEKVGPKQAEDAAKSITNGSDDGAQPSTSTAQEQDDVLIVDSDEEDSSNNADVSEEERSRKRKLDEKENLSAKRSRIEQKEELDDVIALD
Voltage-gated N-type calcium channel alpha-1B subunit/Amyloid beta A4 precursor protein-binding family A member 1, sequence (Q00975 whole entry): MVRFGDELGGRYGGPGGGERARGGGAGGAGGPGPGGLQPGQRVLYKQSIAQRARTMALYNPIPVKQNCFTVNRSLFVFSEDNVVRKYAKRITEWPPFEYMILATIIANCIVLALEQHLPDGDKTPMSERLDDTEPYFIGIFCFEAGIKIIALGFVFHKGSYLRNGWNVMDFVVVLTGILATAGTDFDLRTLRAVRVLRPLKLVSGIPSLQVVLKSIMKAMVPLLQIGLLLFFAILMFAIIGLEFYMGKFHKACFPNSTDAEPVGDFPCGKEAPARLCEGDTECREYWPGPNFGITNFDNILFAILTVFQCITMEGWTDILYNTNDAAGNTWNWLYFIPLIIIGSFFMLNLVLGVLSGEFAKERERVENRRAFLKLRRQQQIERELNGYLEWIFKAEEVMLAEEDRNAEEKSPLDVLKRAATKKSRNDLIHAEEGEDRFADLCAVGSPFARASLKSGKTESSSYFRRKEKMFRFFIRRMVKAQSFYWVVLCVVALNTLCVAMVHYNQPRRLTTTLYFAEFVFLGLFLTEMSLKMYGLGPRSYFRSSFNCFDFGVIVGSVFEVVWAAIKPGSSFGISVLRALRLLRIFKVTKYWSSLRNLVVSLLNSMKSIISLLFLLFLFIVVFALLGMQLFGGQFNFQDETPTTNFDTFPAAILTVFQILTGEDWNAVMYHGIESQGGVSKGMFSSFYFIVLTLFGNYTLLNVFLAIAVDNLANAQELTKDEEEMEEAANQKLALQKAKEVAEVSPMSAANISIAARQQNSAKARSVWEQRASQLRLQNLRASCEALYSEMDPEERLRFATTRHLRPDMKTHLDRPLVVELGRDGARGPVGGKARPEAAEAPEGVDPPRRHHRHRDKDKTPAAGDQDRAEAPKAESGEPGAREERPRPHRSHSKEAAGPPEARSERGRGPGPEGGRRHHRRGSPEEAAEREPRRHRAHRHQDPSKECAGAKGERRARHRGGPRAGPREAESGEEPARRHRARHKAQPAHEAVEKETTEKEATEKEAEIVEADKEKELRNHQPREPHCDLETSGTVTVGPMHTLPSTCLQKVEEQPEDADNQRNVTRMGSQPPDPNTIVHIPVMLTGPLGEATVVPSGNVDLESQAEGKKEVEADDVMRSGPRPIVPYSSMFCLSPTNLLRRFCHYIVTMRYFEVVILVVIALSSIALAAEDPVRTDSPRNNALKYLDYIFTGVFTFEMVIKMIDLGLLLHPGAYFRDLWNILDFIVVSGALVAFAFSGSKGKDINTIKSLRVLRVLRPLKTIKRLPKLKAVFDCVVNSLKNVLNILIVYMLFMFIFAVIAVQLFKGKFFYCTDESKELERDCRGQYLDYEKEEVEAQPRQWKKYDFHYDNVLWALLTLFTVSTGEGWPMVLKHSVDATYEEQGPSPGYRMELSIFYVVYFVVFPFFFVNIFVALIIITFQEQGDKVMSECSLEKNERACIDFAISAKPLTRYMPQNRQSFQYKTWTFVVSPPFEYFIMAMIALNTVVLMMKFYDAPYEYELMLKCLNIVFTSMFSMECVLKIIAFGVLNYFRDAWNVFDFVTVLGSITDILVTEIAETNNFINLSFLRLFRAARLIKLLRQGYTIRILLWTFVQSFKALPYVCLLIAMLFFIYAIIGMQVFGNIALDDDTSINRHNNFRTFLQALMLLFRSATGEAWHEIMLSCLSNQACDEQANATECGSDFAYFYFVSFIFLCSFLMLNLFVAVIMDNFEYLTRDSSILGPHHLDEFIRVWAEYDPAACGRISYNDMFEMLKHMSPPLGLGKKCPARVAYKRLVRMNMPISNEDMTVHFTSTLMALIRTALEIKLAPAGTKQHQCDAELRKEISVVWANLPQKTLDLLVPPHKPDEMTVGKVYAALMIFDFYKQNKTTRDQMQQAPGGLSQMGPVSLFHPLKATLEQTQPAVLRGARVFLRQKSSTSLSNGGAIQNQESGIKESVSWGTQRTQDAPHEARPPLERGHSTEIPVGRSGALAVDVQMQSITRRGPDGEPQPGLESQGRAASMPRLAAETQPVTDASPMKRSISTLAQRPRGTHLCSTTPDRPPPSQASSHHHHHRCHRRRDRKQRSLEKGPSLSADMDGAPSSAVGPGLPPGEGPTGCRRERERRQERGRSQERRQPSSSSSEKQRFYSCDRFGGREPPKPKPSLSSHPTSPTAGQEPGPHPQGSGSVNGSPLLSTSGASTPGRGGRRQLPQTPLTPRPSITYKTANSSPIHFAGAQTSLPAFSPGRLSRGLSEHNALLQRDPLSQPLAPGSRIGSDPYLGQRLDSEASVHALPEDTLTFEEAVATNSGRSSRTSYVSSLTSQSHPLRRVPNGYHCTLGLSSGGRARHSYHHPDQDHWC
Voltage-gated N-type calcium channel alpha-1B subunit/Amyloid beta A4 precursor protein-binding family A member 1, sequence (Q02410 whole entry): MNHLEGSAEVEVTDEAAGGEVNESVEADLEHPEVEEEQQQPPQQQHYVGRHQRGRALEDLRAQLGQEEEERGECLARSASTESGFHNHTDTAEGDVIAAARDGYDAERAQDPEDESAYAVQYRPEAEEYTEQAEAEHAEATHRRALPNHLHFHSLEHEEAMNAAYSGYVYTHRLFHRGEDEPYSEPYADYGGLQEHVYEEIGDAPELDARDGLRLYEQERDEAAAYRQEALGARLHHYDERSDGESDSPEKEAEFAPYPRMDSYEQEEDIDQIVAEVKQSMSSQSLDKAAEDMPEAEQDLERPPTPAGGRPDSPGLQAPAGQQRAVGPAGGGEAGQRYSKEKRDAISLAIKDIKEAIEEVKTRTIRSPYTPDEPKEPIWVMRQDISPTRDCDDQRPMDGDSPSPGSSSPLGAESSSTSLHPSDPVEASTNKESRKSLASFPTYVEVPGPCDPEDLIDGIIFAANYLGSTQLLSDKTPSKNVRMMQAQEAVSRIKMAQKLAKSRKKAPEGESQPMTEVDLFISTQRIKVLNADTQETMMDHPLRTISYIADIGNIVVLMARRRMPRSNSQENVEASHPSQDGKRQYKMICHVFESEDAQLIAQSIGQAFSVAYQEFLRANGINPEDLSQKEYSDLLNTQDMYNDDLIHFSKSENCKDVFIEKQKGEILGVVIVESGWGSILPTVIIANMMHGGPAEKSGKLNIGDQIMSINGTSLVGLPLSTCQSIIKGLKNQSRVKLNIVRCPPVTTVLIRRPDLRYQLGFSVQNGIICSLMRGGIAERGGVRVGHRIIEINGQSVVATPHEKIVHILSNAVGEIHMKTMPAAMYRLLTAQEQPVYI
Procathepsin L, sequence (P07711 whole entry): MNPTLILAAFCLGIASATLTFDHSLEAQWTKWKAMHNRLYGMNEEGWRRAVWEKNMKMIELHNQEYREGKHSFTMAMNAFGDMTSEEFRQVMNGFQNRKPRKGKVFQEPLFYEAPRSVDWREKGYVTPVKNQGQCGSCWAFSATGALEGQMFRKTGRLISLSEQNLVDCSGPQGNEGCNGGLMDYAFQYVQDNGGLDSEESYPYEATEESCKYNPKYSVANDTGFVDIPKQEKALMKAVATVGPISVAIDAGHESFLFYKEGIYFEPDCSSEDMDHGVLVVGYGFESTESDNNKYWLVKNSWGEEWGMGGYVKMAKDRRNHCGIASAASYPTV

For the compound `Oc1cc(-c2cccc3ccccc23)[nH]n1`, the IC50 against Procathepsin L is > 59.6 µM (not active).

In the case of `O=C(Nc1cccc(NC(=O)c2ccccc2Cl)c1)c1ccc([N+](=O)[O-])o1`, the EC50 in assay [1] was 12.1 µM (inconclusive); in assay [2] it was 9.73 µM (active); on Streptokinase A, > 150 µM (not active); in the assay with Streptococcus it was 20.4 µM (inconclusive). In the assay on INS1, the half-maximal activity concentration (AC50) is 7.35 µM (active).

Regarding `Cn1c(O)c(/C=N/NC(=O)c2cc3ccccc3cc2O)c2ccccc21`, the concentration for a half-maximal effect (EC50) in assay [1] was > 160 µM (inconclusive).

For the compound `COc1ccc(CC2=CC(=O)c3ccccc3C2=O)cc1`, the values for the EC50 at Streptokinase A and in the assay on Streptococcus were > 150 µM (not active) and 9.74 µM (active), respectively. Moreover, in assay [3], the IC50 was 4.12 µM (active). For the same compound, the concentration at half-maximal activity (AC50) is 20.7 µM (active) in assay [4], 10.5 µM (active) in [5] and 10.2 µM (active) in assay [6].

Regarding `c1coc(-c2nnc(-c3ccco3)nn2)c1`, the half-maximal effective concentration (EC50) in assay [7] is 7.92 µM (inconclusive). The 50% inhibitory concentration (IC50) at SUMO-activating enzyme is 6.47 µM (active); in assay [8] it was 1.66 µM (active). Also, in assay [5], the AC50 is 5.23 µM (active).

The values above are taken from ChEMBL document CHEMBL1201862, “PubChem BioAssay data set” (2004).
